Columns and labels:
[1] = tested on: Galium aparine; test: Field test, triasulfuron plus adjuvants against weeds in winter wheat; type: in vivo; conditions: triasulfuron 25 g.ha^−1, adjuvant 0.1% by weight or none; visual, percentage of plants affected, 5 weeks after treatment
Protocol: (§1) Field tests were carried out on test plots using a completely randomised block design with 4 replicates. […] In such a situation, it is an important benefit if the herbicide can limit the growth of the weeds (inhibition) e.g. by use of an adjuvant. In this Example, the effect of adjuvants on the activity of triasulfuron against G aparine and V hederifolia growing naturally as weeds in winter wheat was examined. […] G aparine and V hederifolia were used in evaluating herbicidal activity because of their regular distribution. […] The results of the runs using no adjuvant and those for combined adjuvants and herbicide are set out in Table 1 below.

[2] = tested on: Veronica hederifolia; test: as above; type: in vivo; conditions: triasulfuron 25 g.ha^−1, adjuvant 0.1% by weight or none; visual, percentage of plants affected, 5 weeks after treatment
Protocol: as §1

[3] = tested on: Veronica hederffolia; test: Field test, Cameo (tribenuron-methyl) plus adjuvants in winter wheat, growth reduction; type: in vivo; conditions: spray 0.015% tribenuron-methyl, 0.1% adjuvant in tank mix or none
Protocol: Field tests were carried out on test plots using a completely randomised block design with 4 replicates. The spray volume used was 300 I.ha^−1.
The spray solution contained 0.015% by weight tribenuronethyl and 0.1% adjuvant added to the tank mix. The effectiveness of the herbicides was assessed visually by the % growth reduction of the weeds as compared with untreated weeds.

[4] = tested on: Galium aparine; conditions: background statement, no adjuvant; cited from earlier work
[5] = tested on: Veronica hederifolia; conditions: background statement, no adjuvant; cited from earlier work

Row | Compound | Chlorosis, Galium aparine (5 weeks) [1] | Inhibition, Galium aparine (5 weeks) [1] | Necrosis, Galium aparine (5 weeks) [1] | Chlorosis, Veronica hederifolia (5 weeks) [2] | Inhibition, Veronica hederifolia (5 weeks) [2] | Necrosis, Veronica hederifolia (5 weeks) [2] | Inhibition (%), growth reduction of the weeds as compared with untreated weeds [3] | known activity against cleavers (Galium aparine) [4] | known activity against ivy-leaved speedwell (Veronica hederifolia) [5]
1 | nonyl phenol 8-ethoxylate [NP8] | 30% | 40% | 10% | 40% | 60% | 30% | 33% |  | 
2 | COc1nc(C)nc(NC(=O)NS(=O)(=O)c2ccccc2OCCCl)n1 [triasulfuron] | 30% | 50% | 10% | 10% | 40% | 10% |  | limited activity | limited activity

From patent US6413908B1, “Agrochemical surfactant compositions” (Imperial Chemical Industries plc, priority 1997, dated 2002)
